Patent publication US4572916A, “Tablets” (priority 1979, dated 1986)
In brackets after ≈: the same amount, converted by molar mass. Entries after “also recorded” stand apart in the source; their conditions may differ. One block for each compound: values may come before it.

Columns and labels:
[1] = Flowability: flow of 100 g tablet mix through a 3/8 inch orifice funnel; assay type: physicochemical; details: for Time for 100 g of the tablet mix to flow through the 3/8 inch orifice funnel: no vibration, "No flow" = unable to flow completely without agitation
[2] = Tablets made using a 1/4 inch flat face punch; assay type: physicochemical; details: Example 6, aspirin tablets; for Tablet making results: 1/4 inch flat face punch
Procedure: (a) The aspirin was mixed with the carrier under test, taking care to avoid moisture pick-up. The flavour was added to the starch with thorough mixing. The magnesium stearate was then added to the starch and this combination blended, with agitation, with the aspirin-carrier mix. (c) Tablets were made using a 1/4 inch flat face punch with the following results: […]

[3] = Tablet hardness: % weight loss on vibration in a container for 1 hour; assay type: physicochemical
Procedure: (e) Tablet hardness was then assessed. For an objective test, the tablets were vibrated in a container for 1 hour.

[4] = Equilibrium relative humidity / water content of isomaltulose; assay type: physicochemical; details: 80% and 22° C.
[5] = Tablets made using a 1/4 inch flat face punch; assay type: physicochemical; details: Example 7, ascorbic acid tablets, in words
[6] = Sweetness and taste of isomaltulose
[7] = Tablet formation, integrity and fines during tabletting and handling; assay type: physicochemical
Description: 50 g isomaltulose, 4 g gum arabic, 1 g magnesium stearate and 13 g saccharin were dry mixed, giving a flowable tabletting powder. Tablets were formed by direct compression of the powder. […]

[8] = test system: enzyme complex in the human intestine; details: literature clinical / in vitro studies (Holzen); cited from earlier work
[9] = Solubility in water of isomaltulose; assay type: physicochemical
Tablet weight = assay type: physicochemical; details: Example 6, aspirin tablets
Description: (d) The tablet weights were:

[10] = Acid hydrolysis of isomaltulose; assay type: physicochemical; details: 90 h at 58° C. in 2M HCl
[11] = Reducing power of isomaltulose relative to glucose; assay type: physicochemical
[12] = Viscosity of isomaltulose solution in water; assay type: physicochemical; details: H2O

tablet quality / tablet formation ([7]; Example 4(i), direct compression with gum arabic, saccharin tablets): not possible to produce coherent tablets | tablet formation ([7]; Example 4(ii), direct compression without binder, saccharin tablets): Tablets could not be made | Time for 100 g of the tablet mix to flow through the 3/8 inch orifice funnel ([1]; Example 6, aspirin mix): No flow | Flowability, 100 g through 3/8" orifice, no agitation ([1]; Example 7, ascorbic acid mix): Agitation required | Tablet making results [2]: Tablet machine prone to sticking
SMILES: OC[C@H]1O[C@@H](O[C@H]2[C@H](O)[C@@H](O)C(O)O[C@@H]2CO)[C@H](O)[C@@H](O)[C@H]1O (stereo partly shown) [Lactose, reference compound]

Flowability, 100 g through 3/8" orifice, no agitation ([1]; Example 7, ascorbic acid mix): Agitation required
SMILES: OC[C@H]1O[C@@](CO)(O[C@H]2O[C@H](CO)[C@@H](O)[C@H](O)[C@H]2O)[C@@H](O)[C@@H]1O [Sucrose]

The remaining lines, values behind:

SMILES: OC[C@H]1OC(O)[C@H](O)[C@@H](O)[C@@H]1O (stereo partly shown) [Anhydrous dextrose, reference compound]
Time for 100 g of the tablet mix to flow through the 3/8 inch orifice funnel ([1]; Example 6, aspirin mix): No flow | Tablet making results [2]: As (iv)

SMILES: O=C[C@H](O)[C@@H](O)[C@H](O)[C@H](O)CO [Dextrose]
Flowability, 100 g through 3/8" orifice, no agitation ([1]; Example 7, ascorbic acid mix): Agitation required

SMILES: OC[C@H]1O[C@H](OC[C@H]2OC(O)(CO)[C@@H](O)[C@@H]2O)[C@H](O)[C@@H](O)[C@@H]1O (stereo partly drawn) [Isomaltulose, 6-O-(αglucopyranosyl)-D-fructofuranose]
% weight loss on vibration (tablet hardness) ([3]; Example 6, aspirin tablets, vibrated 1 hour): 3.2% | Weight loss on vibration for 1 hour ([3]; Example 7, ascorbic acid tablets): 1.8% | tablet hardness ([3]; Example 7, ascorbic acid tablets, in words): not so well on tablet hardness; also recorded: not as hard as with the specially formulated carriers | dental plaque formation (Streptococcus mutans): little if any dental plaque is formed | metabolism by Streptococcus mutans (Streptococcus mutans; preliminary studies): metabolized by Streptococcus mutans | water content at 80% equilibrium relative humidity and 22 °C [4]: 25-32 % water | tablet quality [5]: shiny, hard and had good appearance; also recorded: clearly superior to the dextrose, lactose and sucrose | taste ([6]; in words): pleasant, not very sweet, reasonably bland taste | sweetness (relative to sucrose sweetness at 7% w/v in water) ([6]; relative to sucrose, 7% w/v in water): 0.37 | binding power when formed into tablets ([7]; in words): unusually good binding power | fines during handling ([7]; tablets with isomaltulose as diluent versus comparable lactose tablets): often show less tendency to generate fines during handling | fate of the constituent monosaccharides (fructose and glucose) [8]: adsorbed, metabolized and otherwise behave as fructose and glucose derived from sucrose | hydrolysis by an enzyme complex in the human intestine [8]: readily hydrolyzed | solubility in water compared with lactose ([9]; in words, versus lactose): better solubility in water than lactose | solubility ([9]; water, 30° C., H2O, read-out: solubility at 30° C., H2 O): 460 mg/mL (≈ 1340 mM) | tablet weights (Tablet weight): 151 mg | flowability, comparison of carriers ([1]; Example 6, aspirin mix, in words): comparable with the specially prepared products Dipac and Emdex, and better than the lactose, icing sugar or anydrous dextrose | Time for 100 g of the tablet mix to flow through the 3/8 inch orifice funnel ([1]; Example 6, aspirin mix): 38 s | Flowability, 100 g through 3/8" orifice, no agitation ([1]; Example 7, ascorbic acid mix): 43 s | flowability ([1]; Example 7, ascorbic acid mix, in words): performed well on flowability | degraded at 90 h [10]: 40% | reducing power [11]: 58-62 % of that of glucose | viscosity at 25° C., 50% w/v, H2 O [12]: 6 cp | Tablet making results [2]: Tablets successfully made; also recorded: Released from die easily; also recorded: Good shiny appearance; also recorded: Good integrity | tablet making, comparison of carriers ([2]; in words): comparable with the Dipac and Emdex, and superior to the other carriers
